{"source": "patent US20200206200A1", "about": "“PROPHYLACTIC AND/OR THERAPEUTIC AGENT CONTAINING PYRIDYLAMINOACETIC ACID COMPOUND” (priority 2015, published 2020)", "tested_on": "ocular hypertensive monkeys", "test": "Intraocular pressure-lowering effect in laser-induced ocular hypertensive monkeys", "format": "in vivo, Macaca fascicularis", "conditions": "0.01 w/v% solution", "procedure": "To investigate the usefulness of the present compound A, an intraocular pressure-lowering effect of the present compound A was tested in experimental animals (ocular hypertensive monkeys). Regarding test solutions, a reference solution not containing the present compound A was used as a control, a solution containing the present compound A was prepared as Example 1 of the invention of the present application, and a latanoprost eye drop was prepared as Comparative Example 1, as shown below.\nTo 1.7 g of polyoxyl 35 castor oil, 10 mL of a 0.5% (w/v) disodium edetate/10% (w/v) glycerin solution, 1 mL of a 1% (w/v) benzalkonium chloride solution, 30 mL of purified water, and 50 mL of a 2% (w/v) boric acid/0.2% (w/v) sorbic acid solution were added and dissolved therein. […]\n(2) The intraocular pressure was measured immediately before instillation of one of the test solutions (the above-described control, Example 1, and Comparative Example 1), and employed as the initial intraocular pressure. […]\n(4) After 2 hours, 4 hours, and 6 hours had passed from the instillation of the test solution, one drop of the 0.4% oxybuprocaine hydrochloride eye drop was instilled for local anesthesia to the eye whose intraocular pressure was to be measured, and then the intraocular pressure was measured. In addition, the intraocular pressure was measured three times, and the average value was shown in the results. […]", "note": "“Also recorded” adds a separate entry of the source."}
{"smiles": "CC(C)OC(=O)CNc1cccc(CN(Cc2ccc(-n3cccn3)cc2)S(=O)(=O)c2cccnc2)n1", "note": "[present compound A, isopropyl (6-{ [4-(pyrazol-1-yl)benzyl] (pyridin-3-ylsulfonyl)aminomethyl}pyridin-2-ylamino)acetate]", "values": [{"measurement": "intraocular pressure-lowering activity (in words)", "result": "larger than that in the latanoprost-treated group; also recorded: rapidly provided an excellent intraocular pressure-lowering effect"}, {"measurement": "time after administration by which excellent intraocular pressure-lowering activity was exhibited", "result": "≤ 2", "unit": "h"}]}
